In ChEMBL document CHEMBL6103570, “An endoplasmic reticulum and lipid droplets dual-localized strategy to develop small molecular photosensitizers that induce ferroptosis during photodynamic therapy” (Eur J Med Chem, 2025):
pIC50: −log10 of the molar value. Activity calls are given as the source filed them. The calls are words filed in the database; no cut-off is given here.

Assays:
[1] = Darktoxicity in mouse 4T1 cells assessed as cell viability preincubated for 24 hrs followed by incubation under dark condition for 24 hrs by MTT assay; assay type: toxicity, cell-based; conditions: time 48 hrs
[2] = Photo selectivity index, ratio of CC50 for darktoxicity in human MDA-MB-231 cells assessed as cell viability preincubated for 24 hrs followed by incubation under dark condition for 24 hrs by MTT assay to IC50 for phototoxicity in human MDA-MB-231 cells assessed as cell viability preincubated for 24 hrs followed by white light irradiation at 20 mW/cm2 for 10 mins and measured after 24 hrs by MTT assay; assay type: toxicity, cell-based; conditions: read-out: Ratio CC50/IC50
4T1 [3] = assay: Antitumor activity against mouse 4T1 cells implanted in mouse model assessed as reduction in tumor cells at 3 mg/kg, IG measured every two days for 15 days under 80 mW/cm2 for 15 mins by digital caliper method; assay type: functional, organism-based; conditions: time 15.0 day
4T1 [4] = assay: Antitumor activity against mouse 4T1 cells implanted in mouse model assessed as infiltration of immune cells at 3 mg/kg, IG measured every two days for 15 days under 80 mW/cm2 for 15 mins by digital caliper method; assay type: functional, organism-based; conditions: time 15.0 day
[5] = Photosensitizing ability of the compound in EtOH assessed as singlet oxygen quantum yield at 100 nM under 520nm 30 mW/cm2 light irradiation by DPBF reagent based analysis; assay type: functional
4T1 [6] = assay: Induction of ferroptosis in mouse 4T1 cells assessed as decrease in intracellular GSH level at 10 nM preincubated in dark condition for 24 hrs followed by 20mW/cm2 white light irradiation for 10 mins and measured after 12 hrs by colorimetric assay; assay type: functional, cell-based; conditions: time 2170.0 min
4T1 [7] = assay: Induction of intracellular ROS generation in mouse 4T1 cells assessed as increase in green fluorescence intensity at 5 to 60 nM incubated in dark for 24 hrs followed by compound removal and measured after 5 mins under 20 mW/cm2H2 white light irradiation in presence of NaN3 by H2-DCFDA staining based fluorescence assay; assay type: functional, cell-based; conditions: dose 5-60 nM
[8] = Phototoxicity in human MCF7 cells assessed as cell viability preincubated for 24 hrs followed by white light irradiation at 20 mW/cm2 for 10 mins and measured after 24 hrs by MTT assay; assay type: functional, cell-based; conditions: MCF7, light or radiation study
4T1 [9] = assay: Induction of ferroptosis in mouse 4T1 cells assessed as increase in MDA level at 10 nM preincubated in dark condition for 24 hrs followed by 20mW/cm2 white light irradiation for 10 mins and measured after 6 hrs by colorimetric assay; assay type: functional, cell-based; conditions: time 1810.0 min
[10] = Darktoxicity in human MCF7 cells assessed as cell viability preincubated for 24 hrs followed by incubation under dark condition for 24 hrs by MTT assay; assay type: toxicity, cell-based; conditions: time 48 hrs
[11] = Drug localization in Lipid droplet of mouse 4T1 cells assessed as increase in green fluorescence by measuring pearson correlation coefficient at 2 uM incubated for 12 hrs by confocal scanning microscopy analysis; assay type: ADME, subcellular; conditions: 4t1, 12 h
[12] = Phototoxicity in human Bcap37 cells assessed as cell viability preincubated for 24 hrs followed by white light irradiation at 20 mW/cm2 for 10 mins and measured after 24 hrs by MTT assay; assay type: functional, cell-based; conditions: Bcap37, light or radiation study
4T1 [13] = assay: Induction of ferroptosis in mouse 4T1 cells assessed as cell viability at 20 nM preincubated for 24 hrs followed by white light irradiation at 20 mW/cm2 and measured after 24 hrs in presence of Nec-1 by MTT assay; assay type: functional, cell-based; conditions: time 48.0 hrs
[14] = Phototoxicity in mouse 4T1 cells assessed as cell viability preincubated for 24 hrs followed by white light irradiation at 20 mW/cm2 for 10 mins and measured after 24 hrs by MTT assay; assay type: functional, cell-based; conditions: 4T1, light or radiation study
[15] = Toxicity in mouse assessed as effect on liver in at 3 mg/kg, IG measured after 15 days by H and E staining based analysis; assay type: organism-based; conditions: in vivo, po, 360 h, time 15 day
4T1 [16] = assay: Antitumor activity against mouse 4T1 cells implanted in mouse model assessed as tumor growth inhibition at 3 mg/kg, IG measured every two days for 15 days under 80 mW/cm2 for 15 mins by digital caliper method relative to control; assay type: functional; conditions: 4T1, po, 360 h, time 15 day, read-out: TGI
[17] = Photo selectivity index, ratio of CC50 for darktoxicity in human MCF7 cells assessed as cell viability preincubated for 24 hrs followed by incubation under dark condition for 24 hrs by MTT assay to IC50 for phototoxicity in human MCF7 cells assessed as cell viability preincubated for 24 hrs followed by white light irradiation at 20 mW/cm2 for 10 mins and measured after 24 hrs by MTT assay; assay type: toxicity, cell-based; conditions: read-out: Ratio CC50/IC50
4T1 [18] = assay: Induction of ferroptosis in mouse 4T1 cells assessed as cell viability at 20 nM preincubated for 24 hrs followed by white light irradiation at 20 mW/cm2 and measured after 24 hrs in presence of Z-VAD-FMK by MTT assay; assay type: functional, cell-based; conditions: time 48.0 hrs
[19] = Toxicity in mouse assessed as effect on lung in at 3 mg/kg, IG measured after 15 days by H and E staining based analysis; assay type: organism-based; conditions: in vivo, po, 360 h, time 15 day
[20] = Drug localization in endoplasmic reticulum of mouse 4T1 cells assessed as increase in green fluorescence at 2 uM incubated for 12 hrs by confocal scanning microscopy analysis; assay type: ADME, subcellular; conditions: 4t1, 12 h
4T1 [21] = assay: Induction of ferroptosis in mouse 4T1 cells assessed as cell viability at 20 nM preincubated for 24 hrs followed by white light irradiation at 20 mW/cm2 and measured after 24 hrs in presence of Fer-1 by MTT assay; assay type: functional, cell-based; conditions: time 48.0 hrs
[22] = Drug localization in mitochondria of mouse 4T1 cells assessed as increase in green fluorescence by measuring pearson correlation coefficient at 2 uM incubated for 12 hrs by confocal scanning microscopy analysis; assay type: ADME; conditions: 4t1, 12 h
[23] = Darktoxicity in human MDA-MB-231 cells assessed as cell viability preincubated for 24 hrs followed by incubation under dark condition for 24 hrs by MTT assay; assay type: toxicity, cell-based; conditions: time 48 hrs
[24] = Drug localization in Lysosome of mouse 4T1 cells assessed as increase in green fluorescence by measuring pearson correlation coefficient at 2 uM incubated for 12 hrs by confocal scanning microscopy analysis; assay type: ADME, subcellular; conditions: 4t1, 12 h
4T1 [25] = assay: Induction of ferroptosis in mouse 4T1 cells assessed as cell viability at 20 nM preincubated for 24 hrs followed by white light irradiation at 20 mW/cm2 and measured after 24 hrs in presence of 3-MA by MTT assay; assay type: functional, cell-based; conditions: time 48.0 hrs
4T1 [26] = assay: Antitumor activity against mouse 4T1 cells implanted in mouse model assessed as reduction in tumor growth at 3 mg/kg, IG measured every two days for 15 days by digital caliper method; assay type: functional, organism-based; conditions: time 15.0 day
[27] = Drug localization in Lipid droplet of mouse 4T1 cells assessed as increase in green fluorescence at 2 uM incubated for 12 hrs by confocal scanning microscopy analysis; assay type: ADME, subcellular; conditions: 4t1, 12 h
[28] = Phototoxicity in human MDA-MB-231 cells assessed as cell viability preincubated for 24 hrs followed by white light irradiation at 20 mW/cm2 for 10 mins and measured after 24 hrs by MTT assay; assay type: functional, cell-based; conditions: MDA-MB-231, light or radiation study
[29] = Toxicity in mouse assessed as effect on kidney in at 3 mg/kg, IG measured after 15 days by H and E staining based analysis; assay type: organism-based; conditions: in vivo, po, 360 h, time 15 day
[30] = Darktoxicity in human Bcap37 cells assessed as cell viability preincubated for 24 hrs followed by incubation under dark condition for 24 hrs by MTT assay; assay type: toxicity, cell-based; conditions: time 48 hrs
[31] = Toxicity in mouse assessed as effect on heart in at 3 mg/kg, IG measured after 15 days by H and E staining based analysis; assay type: organism-based; conditions: in vivo, po, 360 h, time 15 day

COC(=O)c1cc2c3ccccc3n(C)c2c(C2=C3C(C)=C(I)C(C)=[N+]3[B-](F)(F)n3c(C)c(I)c(C)c32)n1
CC50 at 24 h [1]: > 100000 nM
selectivity ratio [2]: > 9960
Activity (4T1 [3]): Active
Activity (4T1 [4]): Active
Activity [5]: 0.78
Activity (4T1 [6]): Active
Activity (4T1 [7]): inactive
pIC50 [8]: 7.89
Activity (4T1 [9]): Active
CC50 at 24 h [10]: > 100000 nM
Activity [11]: 0.93
pIC50 [12]: 7.96
Activity (4T1 [13]): inactive
pIC50 [14]: 7.72
Activity [15]: Non-toxic
inhibition in vivo at 3 mg/kg (4T1 [16]): 67.6%
selectivity ratio [17]: > 7750
Activity (4T1 [18]): inactive
Activity [19]: Non-toxic
Drug uptake [20]: Active
Activity (4T1 [21]): Active
Activity [22]: 0.49
CC50 at 24 h [23]: > 100000 nM
Activity [24]: 0.53
Activity (4T1 [25]): inactive
Activity (4T1 [26]): inactive
Drug uptake [27]: Active
pIC50 [28]: 8.00
Activity [29]: Non-toxic
CC50 at 24 h [30]: > 100000 nM
Activity [31]: Non-toxic
